Laboratory results as given in ChEMBL document CHEMBL1121897, “Synthesis and antihypertensive activity of new 6-heteroaryl-3-hydrazinopyridazine derivatives” (J Med Chem, 1981).

Experiments:
Rattus norvegicus [1] = test: Relative potency of compound was measured in anesthetized rats after iv administration; assay type: functional
Rattus norvegicus [2] = test: Hypotensive activity was measured as ED20 which is the dose lowered the normal arterial pressure in anesthetized rat by 20% after iv administration; assay type: functional, Artery
Rattus norvegicus [3] = test: Relative potency of compound was measured in conscious SH rats after po administration; assay type: functional
[4] = Acute toxicity was measured as LD50 in mice after ip administration; assay type: organism-based; conditions: mouse, in vivo
Rattus norvegicus [5] = test: Antihypertensive activity was measured as ED20 which is the dose lowered the normal arterial pressure in conscious SH rats by 20% after po administration; assay type: functional, Artery
Rattus norvegicus [6] = test: Relative potency of compound was measured in anesthetized rats after iv administration.; assay type: functional
Rattus norvegicus [7] = test: Hypotensive activity was measured as ED20 which is the dose lowered the normal arterial pressure in anesthetized rats by 20% after iv administration.; assay type: functional, Artery
Rattus norvegicus [8] = test: Relative potency of compound was measured in anesthetized rats after ip administration; assay type: functional
Rattus norvegicus [9] = test: Hypotensive activity was measured as ED20 which is the dose lowered the normal arterial pressure in anesthetized rats by 20% after iv administration; assay type: functional, Artery
Rattus norvegicus [10] = test: Antihypertensive activity was measured as ED20 which is the dose lowered the normal arterial pressure in conscious SH rats by 20% after po administration.; assay type: functional, Artery
[11] = Acute toxicity was measured as LD50 in mice after ip administration.; assay type: organism-based; conditions: mouse, in vivo
Rattus norvegicus [12] = test: Relative potency of compound was measured in conscious SH rats after po administration.; assay type: functional
Rattus norvegicus [13] = test: Hypotensive activity was measured as ED20 which is the dose lowered the normal arterial pressure in anesthetized rats by 20% after ip administration.; assay type: functional, Artery
Rattus norvegicus [14] = test: Relative potency of compound was measured in anesthetized rats after ip administration.; assay type: functional

Cl.NNc1ccc(-n2cccc2)nn1
Relative potency (Rattus norvegicus [1]): 1.06
ED20 (Rattus norvegicus [2]): 0.423 µM/kg
Relative potency (Rattus norvegicus [3]): 0.9
LD50 [4]: 389 µmol/kg
ED20 (Rattus norvegicus [5]): 40.1 µM/kg

CC(C)=NNc1ccc(-n2cccc2)nn1.Cl
Relative potency (Rattus norvegicus [6]): 0.1
ED20 (Rattus norvegicus [7]): 4.65 µM/kg

Cc1ccc(C)n1-c1ccc(NN)nn1.Cl
Relative potency (Rattus norvegicus [8]): 0.06
ED20 (Rattus norvegicus [9]): 8.02 µM/kg

CC(C)=C/C(C)=N\Nc1ccc(-n2cccc2)nn1.Cl
Relative potency (Rattus norvegicus [6]): 0.25
ED20 (Rattus norvegicus [7]): 1.77 µM/kg

NNc1ccc(-c2ccc(Cl)s2)nn1
Relative potency (Rattus norvegicus [8]): 0.19
ED20 (Rattus norvegicus [9]): 9.51 µM/kg

CCc1nccn1-c1ccc(NN=C(C)C)nn1
ED20 (Rattus norvegicus [10]): 10.2 µM/kg
Relative potency (Rattus norvegicus [6]): 1.82
ED20 (Rattus norvegicus [7]): 0.247 µM/kg
LD50 [11]: 508 µmol/kg
Relative potency (Rattus norvegicus [12]): 3.54

NNc1ccc(-n2c3ccccc3c3ccccc32)nn1
Relative potency (Rattus norvegicus [8]): <0.11

NNc1ccc(-c2cccs2)nn1
Relative potency (Rattus norvegicus [8]): 1.08
ED20 (Rattus norvegicus [9]): 0.41 µM/kg
LD50 [4]: 521 µmol/kg

Cc1nccn1-c1ccc(NN)nn1
Relative potency (Rattus norvegicus [3]): 4.88
Relative potency (Rattus norvegicus [8]): 2.75
ED20 (Rattus norvegicus [9]): 0.163 µM/kg
LD50 [4]: 1020 µmol/kg
ED20 (Rattus norvegicus [5]): 7.42 µM/kg

NNc1ccc(-n2ccnc2)nn1
Relative potency (Rattus norvegicus [8]): 0.17
ED20 (Rattus norvegicus [9]): 2.64 µM/kg
LD50 [4]: 853 µmol/kg

CCc1nccn1-c1ccc(NN)nn1
Relative potency (Rattus norvegicus [3]): 2.52
Relative potency (Rattus norvegicus [8]): 1.43
ED20 (Rattus norvegicus [9]): 0.313 µM/kg
LD50 [4]: 765 µmol/kg
ED20 (Rattus norvegicus [5]): 14.3 µM/kg

NNc1ccc(-n2cncn2)nn1
Relative potency (Rattus norvegicus [8]): 0.17
LD50 [4]: 262 µmol/kg

NNc1ccc(-n2ccc3ccccc32)nn1
Relative potency (Rattus norvegicus [8]): 0.22
ED20 (Rattus norvegicus [9]): 2.06 µM/kg
LD50 [4]: 206 µmol/kg

NNc1ccc(-n2cccn2)nn1
ED20 (Rattus norvegicus [9]): 0.83 µM/kg
LD50 [4]: 387 µmol/kg
ED20 (Rattus norvegicus [5]): 27.3 µM/kg
Relative potency (Rattus norvegicus [12]): 1.32

NNc1ccc(-n2cccc2)[n+]([O-])n1
ED20 (Rattus norvegicus [13]): >5.24 µM/kg
Relative potency (Rattus norvegicus [14]): <0.34

CC(C)=NNc1ccc(-n2ccnc2C)nn1
ED20 (Rattus norvegicus [10]): 10.7 µM/kg
Relative potency (Rattus norvegicus [6]): 1.86
ED20 (Rattus norvegicus [7]): 0.242 µM/kg
LD50 [11]: 430 µmol/kg
Relative potency (Rattus norvegicus [12]): 3.37

N/N=c1\[nH][nH]/c(=N\N)c2ccccc12 [DIHYDRALAZINE]
ED20 (Rattus norvegicus [10]): 36.1 µM/kg
ED20 (Rattus norvegicus [13]): 1.78 µM/kg
Relative potency (Rattus norvegicus [6]): 1
ED20 (Rattus norvegicus [7]): 0.449 µM/kg
LD50 [11]: 1080 µmol/kg
Relative potency (Rattus norvegicus [12]): 1
